Experimental data taken from patent publication US20120190620A1, “METHODS TO IDENTIFY TARGETS AND MOLECULES REGULATING PURINOSOMES AND THEIR USES” (priority 2010, published 2012).

Legend:
Format in all cases: cell-based, human
[1] = tested on: HeLa cells; test: Purinosome dynamics DMR screen, sequential order molecule, DMAT, TBB; conditions: for modulation of the DMAT signal / modulation of the TBB signal: adrenergic receptor ligand library, order ligand, TBB, FIG. 5, DMAT
Excerpt: A library of agonists for various different GPCRs were used to individually pretreat a confluent layer of Hela cells for about one hour, before sequential stimulation with DMAT and TBB, respectively. The responses were monitored using Epic® system.
A library of molecules targeting endogenous alpha2A and beta2 adrenergic receptors were used to individually pretreat a confluent layer of Hela cells for about one hour, before sequential stimulation with DMAT and TBB, respectively. The responses were monitored using Epic® system.
(§1) Epic® wavelength interrogation system (Corning Inc., Corning, N.Y.) was used for whole cell sensing. This system consists of a temperature-control unit, an optical detection unit, and an on-board liquid handling unit with robotics. The detection unit is centered on integrated fiber optics, and enables kinetic measures of cellular responses with a time interval of ˜15 sec. The compound solutions were introduced by using the on-board liquid handling unit (i.e., pippetting).
(§2) For biosensor cellular assays, compound solutions were made by diluting the stored concentrated solutions with the HBSS (1× Hanks balanced salt solution, plus 20 mM Hepes, pH 7.1), and transferred into a 384 well polypropylene compound storage plate to prepare a compound source plate. Two compound source plates were made separately when a two-step assay was performed. In parallel, the cells were washed twice with the HBSS and maintained in 30 μl of the HBSS to prepare a cell assay plate. Both the cell assay plate and the compound source plate(s) were then incubated in the hotel of the reader system. After incubation the baseline wavelengths of all biosensors in the cell assay microplate were recorded and normalized to zero. Afterwards, a 2 to 10 min continuous recording was carried out to establish a baseline, and to ensure that the cells reached a steady state. Cellular responses were then triggered by transferring 10 μl of the compound solutions into the cell assay plate using the on-board liquid handler.
(§3) All studies were carried out at a controlled temperature (28° C.). At least two independent sets of experiments, each with at least three replicates, were performed.
(§4) The upstream signaling pathways linking to the purinosome is unknown at the present time. To identify cellular targets and pathways that are involved in regulating purinosome dynamics, a library of agonists for a great number of G protein-coupled receptors and membrane bound receptor tyrosine kinases was made in house, and each agonist was used to stimulate a confluent layer of Hela cells, cultured using high initial seeding number (25k per well for 384 well Epic® cell culture compatible biosensor microplates) in purine rich medium (i.e., regular 10% FCS or FBS). The concentrations for all small organic molecules were 10 micromolar, whereas 1 micromolar for all small peptides, and 100 nanomolar for all protein factors (molecular weight >15k Da). The cellular responses to each agonist were recorded for about 1 hour, and used to determine the functional expression of their corresponding cognate receptor(s).
To examine the receptor whose signaling is involved in regulating the purinosome dynamics, Hela cells were pretreated individually with each agonist for about one hour, followed by sequential stimulation with DMAT (20 micromolar) and TBB (25 micromolar), each step about 1 hour.

[2] = tested on: HeLa cells; test: Purinosome dynamics DMR screen, sequential order molecule, TBB, DMAT; conditions: agonist library; order agonist, TBB, DMAT; FIG. 4
Excerpt: A library of agonists for various different GPCRs were used to individually pretreat a confluent layer of Hela cells for about one hour, before sequential stimulation with TBB and DMAT, respectively. The responses were monitored using Epic® system.
(A) The dose-dependent DMR signals of Hela cells induced by alpha2A agonist clonidine. (B) The TBB DMR signal of Hela cells after pretreated with clonidine at different doses. (C) The dose-dependent DMR signals of pertussis toxin (PTX)-pretreated Hela cells induced by alpha2A agonist clonidine. (D) The TBB DMR signal of the PTX-pretreated Hela cells after stimulated with clonidine at different doses. The TBB concentration was 20 μM in both (C) and (D). The clonidine pretreatment occurred about one-hour before the TBB stimulation.
as §1, §2, §3, §4

[3] = tested on: HeLa cells; test: Epic label-free biosensor DMR assay of compound-induced signals in HeLa cells; conditions: for effect of pretreatment on the sequential DMAT response / effect of pretreatment on the sequential TBB response: HeLa cells pretreated with the compound about 1 hr; for effect of pretreatment on the sequential DMAT response: then DMAT; for effect of pretreatment on the sequential TBB response: then TBB; for DMR signal induced by CK2 inhibitor: HeLa cells, regular serum medium, high initial seeding number
Excerpt: HeLa cells were obtained from American Type Cell Culture (Manassas, Va.). This cervical cancer cell line was maintained in regular serum medium (i.e., minimum essential medium (MEM) (Invitrogen) supplemented with 10% fetal bovine serum (FBS) and 1% Penicillin/streptomycin). To investigate the effects of purine depletion on the purinosome formation and dissociation, HeLa cells were maintained for at least two passages in “purine-depleted medium” prior cell assays. The purine depleted medium is a medium consisting of Roswell Park Memorial Institute 1640 (RPMI 1640) supplemented with dialyzed 5% FBS […]. FBS was dialyzed against 0.9% NaCl at 4° C. for ˜2 days using a 25 kDa MWCO dialysis membrane to remove purines. This process completely removes the purines normally present in FBS.
Cells were typically grown using ˜1 to 2×10^4 cells per well at passage 3 to 15 suspended in 50 μl of the corresponding culture medium in the biosensor microplate, and were cultured at 37° C. under air/5% CO2 for ˜1 day. The confluency for all cells at the time of assays was ˜100%.
as §1
The RWG biosensor is capable of detecting minute changes in local index of refraction near the sensor surface. Since the local index of refraction within a cell is a function of density and its distribution of biomass (e.g., proteins, molecular complexes), the biosensor exploits its evanescent wave to non-invasively detect ligand-induced dynamic mass redistribution in native cells. The evanescent wave extends into the cells and exponentially decays over distance, leading to a characteristic sensing volume of ˜150 nm, implying that any optical response mediated through the receptor activation only represents an average over the portion of the cell that the evanescent wave is sampling. The aggregation of many cellular events downstream the receptor activation determines the kinetics and amplitudes of a ligand-induced DMR.
as §2, §3

[4] = tested on: purinosome complexes in Hela cells; test: Fluorescence imaging of GFP-hFGAMS clusters (purinosome complexes) in Hela cells; conditions: Hela cells, purine rich medium
Experimental: The hFGAMS-GFP and hFGAMS-OFP constructs were prepared and used to transfect the before human cervical cancer cell line HeLa (An, S. et al. “Reversible compartmentalization of de novo purine biosynthetic complexes in living cells”. Science 2008, 320: 103-106). Briefly, HeLa cells were subjected to “purine-depleted medium”; Roswell Park Memorial Institute 1640 (RPMI 1640; Mediatech) supplemented with dialyzed 5% fetal bovine serum (FBS; Atlanta Biological) and 50 μg/mL gentamicin sulfate (Sigma), and “purine-rich medium”; Minimal Essential Medium (MEM; Mediatech) with 10% FBS and 50 μg/mL gentamicin sulfate. FBS was dialyzed against 0.9% NaCl at 4° C. for ˜2 days. Lipofectamine 2000 (Invitrogen) as a transfection reagent was used by following the manufacturer's protocol. Of note, an alternative purine-depleted medium (i.e. MEM, dialyzed 10% FBS and 50 μg/mL gentamicin sulfate) was evaluated with respect to purinosome formation in HeLa cells by transiently expressing hFGAMS-GFP.
All samples were imaged at ambient temperature (˜25° C.) with a 60× objective (1.49 numerical aperture; Nikon Apo TIRF) using a Photometrics CoolSnap ES2 CCD detector mounted onto a Nikon TE-2000E inverted microscop. Oregon Green 488 and GFP detection was accomplished using a S484/15x excitation filter (Chroma Technology), S517/30m emission filter (Chroma Technology) and Q505LP/HQ510LP dichroic (Chroma Technology); rhodamine and OFP detection was carried out using a S555/25x excitation filter (Chroma Technology), S605/40m emission filter (Chroma Technology) and Q575LP/HQ585LP dichroic (Chroma Technology). […]
To confirm the linkage of alpha2A, but not beta2AR, to purinosome formation, fluorescence imaging was used. […]
The biosensor screen data shown in FIG. 5 also indicate that certain alpha2A-AR antagonist can suppress the purinosome formation or even cause the dissociation of purinosome complexes. To test this, fluorescence imaging of GFP-hFGAMS in Hela cells were used.

[5] = GPCR/RTK agonist library, pretreated about one hour, order agonist, DMAT (20 micromolar), TBB (25 micromolar), FIG. 3

For CS(=O)(=O)Nc1c(O)ccc2c1CCCC2C1=NCCN1 (centres unmarked) [A61603], the “modulation of the DMAT DMR signal” value [1, 5] was “suppress”, the “modulation of the TBB DMR signal” value [1, 5] was “potentiate” and the “modulation of the DMAT signal” value [1] was “suppress”. For the same molecule, the “modulation of the TBB signal” value [1] was “potentiate” and the “modulation of the TBB DMR signal” value [2] was “selectively potentiate”.
Nc1ncnc2c1ncn2[C@@H]1O[C@H](COP(=O)(O)OP(=O)(O)OP(=O)(O)O)[C@@H](O)[C@H]1O [ATP] was tested, and the “modulation of the DMAT DMR signal” value [1, 5] was “selectively suppress” and the “modulation of the TBB DMR signal” value [2] was “selectively potentiate”.
OC[C@H]1O[C@@H](n2cnc3cc(Cl)c(Cl)cc32)[C@H](O)[C@@H]1O [DRB, 5,6-Dichlorobenzimidazole 1-β-D-ribofuranoside] was tested, and the “effect of pretreatment on the sequential DMAT response” value [3] was “desensitized”, the “effect of pretreatment on the sequential TBB response” value [3] was “slightly potentiated” and the “DMR signal induced by CK2 inhibitor” value [3] was “DMR signals similar to the DMAT response”.
CCCCC[C@H](O)/C=C/[C@H]1C(=O)C[C@H](O)[C@@H]1C/C=C\CCCC(=O)O [PGD2, prostaglandin D2] was tested, and the “modulation of the DMAT DMR signal” value [1, 5] was “potentiate”, the “modulation of the TBB DMR signal” value [1, 5] was “no or little impact” and the “modulation of the TBB DMR signal” value [2] was “selectively suppress”.
In the case of CCCCC[C@H](O)/C=C/[C@H]1[C@H](O)CC(=O)[C@@H]1C/C=C\CCCC(=O)O [PGE2, peostaglandin E2], the “modulation of the DMAT DMR signal” value [1, 5] is reported as “potentiate”, the “modulation of the TBB DMR signal” value [1, 5] is reported as “no or little impact” and the “modulation of the TBB DMR signal” value [2] is reported as “selectively suppress”.
In the case of C[C@H](N)Cn1ccc2cc(F)c(Cl)cc21 [Ro600175], the “modulation of the DMAT DMR signal” value [1] is reported as “potentiate”, the “modulation of the TBB DMR signal” value [1] is reported as “no or little impact” and the “modulation of the DMAT DMR signal” value [2] is reported as “selectively potentiate”.
In the case of CCCCCCCCCCCCC/C=C/[C@@H](O)[C@@H](N)COP(=O)(O)O [S1P, Sphingosine-1-phosphate], the “modulation of the DMAT DMR signal” value [1, 5] is reported as “selectively suppress” and the “modulation of the TBB DMR signal” value [2] is reported as “selectively potentiate”.
Brc1c(Br)c(Br)c2[nH]cnc2c1Br [TBBz, 4,5,6,7-tetrabromobenzimidazole] was tested, and the “type of CK2 inhibitor by label-free biosensor cellular assay” value [3] was “purinosome disruption agent”.
With O=C(O)/C=C/c1cc(Br)c(Br)c(Br)c1Br [TBCA, Tetrabromocinnamic Acid] the “type of CK2 inhibitor by label-free biosensor cellular assay” value [3] was “purinosome promoting agent”, the “effect of pretreatment on the sequential DMAT response” value [3] was “desensitized” and the “effect of pretreatment on the sequential TBB response” value [3] was “slightly potentiated”. The “DMR signal induced by CK2 inhibitor” value [3] was “DMR signals similar to the DMAT response”.
In the case of O=c1ccn([C@@H]2O[C@H](COP(=O)(O)OP(=O)(O)O)[C@@H](O)[C@H]2O)c(=O)[nH]1 [UDP], the “modulation of the DMAT DMR signal” value [1, 5] is reported as “selectively suppress” and the “modulation of the TBB DMR signal” value [2] is reported as “selectively potentiate”.
For O=c1cc(-c2ccc(O)cc2)oc2cc(O)cc(O)c12 [apigenin], the “DMR signal induced by CK2 inhibitor” value [3] was “DMR signals similar to the DMAT response”.
For NCCc1ccc(O)c(O)c1 [dopamine], the “modulation of the DMAT DMR signal” value [1, 5] was “suppress”, the “modulation of the TBB DMR signal” value [1, 5] was “potentiate” and the “modulation of the DMAT signal” value [1] was “suppress”. The “modulation of the TBB signal” value [1] was “potentiate” and the “modulation of the TBB DMR signal” value [2] was “selectively potentiate”.
In the case of CNC[C@H](O)c1ccc(O)c(O)c1 [epinephrine, Epinephrine], the “modulation of the DMAT DMR signal” value [1, 5] is reported as “suppress”, the “modulation of the TBB DMR signal” value [1, 5] is reported as “potentiate” and the “modulation of the DMAT signal” value [1] is reported as “suppress”. The “modulation of the TBB signal” value [1] was “potentiate” and the “modulation of the TBB DMR signal” value [2] was “selectively potentiate”.
In the case of CNC[C@H](O)c1cccc(O)c1 [phenylephrine, (R)-(−)-phenylephrine], the “modulation of the DMAT DMR signal” value [1, 5] is reported as “suppress”, the “modulation of the TBB DMR signal” value [1, 5] is reported as “potentiate” and the “modulation of the DMAT signal” value [1] is reported as “suppress”. For the same molecule, the “modulation of the TBB signal” value [1] was “potentiate” and the “modulation of the TBB DMR signal” value [2] was “selectively potentiate”.
In the case of OCc1cc(C(O)CNCCCCCCOCCCCc2ccccc2)ccc1O (centres unmarked) [salmeterol], the “fluorescence pattern of GFP-hFGAMS after stimulation” value [4] is reported as “did not result in the formation of fluorescent clusters”.
In the case of “EGF: epidermal growth factor, the EGFR agonist (NSDSECPLSHDGYCLHDGVCMYIEALDKYACNCVVGYIGERCQYRDLKWWELR; not fully specified; Epidermal growth factor; UniProt P01133 971-1023, looked up)”, the “modulation of the DMAT DMR signal” value [2] is reported as “selectively suppress”.
With “HGF: hepatocyte growth factor, the HGFR agonist” the “modulation of the TBB DMR signal” value [2] was “selectively potentiate”.
In the case of “IGF1: insulin-like growth factor 1, the IGF1R agonist”, the “modulation of the TBB DMR signal” value [2] is reported as “selectively potentiate”.
With lysophosphatidic Acid [LPA] the “modulation of the DMAT DMR signal” value [1, 5] was “selectively suppress” and the “modulation of the TBB DMR signal” value [2] was “selectively potentiate”.
